Test results taken from patent publication US6548496B2, “Substituted 3-cyano-[1.7], [1.5], and [1.8] naphthyridine inhibitors of tyrosine kinases” (American Cyanamid Company, priority 1999, dated 2003).
Converted amounts (≈) assume the structure as drawn.

How the values were obtained:
[1] = target: Epithelial Cell Kinase (ECK) (Homo sapiens, UniProt P29317); test: Inhibition of Epithelial Cell Kinase (ECK); format: biochemical; settings: biotinylated peptide substrate, HRP anti-phosphotyrosine readout, pH 7.2
Experimental: In this standard pharmacological test procedure, a biotinylated peptide substrate is first immobilized on neutravidin-coated microtiter plates. The test drug, the Epithelial Cell Kinase (ECK), Mg^++, sodium vanadate (a protein tyrosine phosphatase inhibitor), and an appropriate buffer to maintain pH (7.2) are then added to the immobilized substrate-containing microtiter wells. ATP is then added to initiate phosphorylation. After incubation, the assay plates are washed with a suitable buffer leaving behind phosphorylated peptide which is exposed to horse radish peroxidase (HRP)-conjugated anti-phosphotyrosine monoclonal antibody. The antibody-treated plates are washed again and the HRP activity in individual wells is quantified as a reflection of degree of substrate phosphorylation. This nonradioactive format was used to identify inhibitors of ECK tyrosine kinase activity where the IC50 is the concentration of drug that inhibits substrate phosphorylation by 50%. Multiple entries for a given compound indication it was tested multiple times.

[2] = target: T1, epidermal growth factor receptor kinase (EGF-R), His-tagged cytoplasmic domain of EGFR (Homo sapiens, UniProt P00533); test: Inhibition of EGF-R kinase using recombinant enzyme; format: biochemical; settings: RR-SRC peptide substrate, 33P-ATP, 90 min at room temperature
T1 construct: containing the EGFR cDNA encoding amino acids 645-1186 preceded by Met-Ala-(His)6; made in house; host or cells: Sf9 insect cells, recombinant baculovirus vHcEGFR52
Experimental: Representative test compounds were evaluated for their ability to inhibit the phosphorylation of the tyrosine residue of a peptide substrate catalyzed by the enzyme epidermal growth factor receptor kinase. The peptide substrate (RR-SRC) has the sequence arg-arg-leu-ile-glu-asp-ala-glu-tyr-ala-ala-arg-gly. The enzyme used in this assay is the His-tagged cytoplasmic domain of EGFR. A recombinant baculovirus (vHcEGFR52) was constructed containing the EGFR cDNA encoding amino acids 645-1186 preceded by Met-Ala-(His)6. Sf9 cells in 100 mm plates were infected at an moi of 10 pfu/cell and cells were harvested 48 h post infection. A cytoplasmic extract was prepared using 1% Triton X-100 and applied to Ni-NTA column. After washing the column with 20 mM imidazole, HcEGFR was eluted with 250 mM imidazole (in 50 mM Na2HPO4, pH 8.0, 300 mM NaCl). […]
For the enzyme reaction, 10 uL of each inhibitor (at various concentrations) were added to each well of a 96-well plate. […] The filter discs were washed 2× with 0.5% phosphoric acid and radioactivity was measured using a liquid scintillation counter.
The inhibition data for representative compounds of the invention are shown below in TABLE 1. […] The % inhibition of the test compound was determined for at least three different concentrations and the IC50 value was evaluated from the dose response curve. The % inhibition was evaluated with the following formula: […]

SW620 = test: Inhibition of cancer cell growth by cell number, SW620; format: cell-based, Human; settings: Homo sapiens, SW-620; 48 hours exposure, Sulforhodamine B
Experimental: (§1) Human tumor cell lines were plated in 96-well plates (250 μl/well, 1-6×10^4 cells/ml) in RPMI 1640 medium, containing 5% FBS (Fetal Bovine Serum). […] After 48 hours exposure to test compounds, cells were fixed with trichloroacetic acid, and stained with Sulforhodamine B. After washing with trichloroacetic acid, bound dye was solubilized in 10 mM Tris base and optical density was determined using a plate reader. Under conditions of the assay the optical density is proportional to the number of cells in the well. IC50s (concentrations causing 50% inhibition of cell growth) were determined from the growth inhibition plots. The test procedure is described in details by Philip Skehan et. at J. Natl. Canc. Inst., 82, 1107-1112 (1990). […] Information about some of the cell lines used in these test procedures is available from the American […]: Cell Lines and Hybridomas, 1994 Reference Guide, 8th Edition. The Her2Neu cell line is a 3T3 line that has bbeen transfected with Her2 receptor kinase.

A2780DDP = test: Inhibition of cancer cell growth by cell number, A2780DDP; format: cell-based, Human; settings: Homo sapiens; 48 hours exposure, Sulforhodamine B
Experimental: as §1

SKBR3 = test: Inhibition of cancer cell growth by cell number, SKBR3; format: cell-based, Human; settings: Homo sapiens, SK-BR-3; 48 hours exposure, Sulforhodamine B
Experimental: as §1

A2780S = test: Inhibition of cancer cell growth by cell number, A2780S; format: cell-based, Human; settings: Homo sapiens, A2780S; 48 hours exposure, Sulforhodamine B
Experimental: as §1

A431 = test: Inhibition of cancer cell growth by cell number, A431; format: cell-based, Human; settings: Homo sapiens, A-431; 48 hours exposure, Sulforhodamine B
Experimental: as §1

MDA435 = test: Inhibition of cancer cell growth by cell number, MDA435; format: cell-based, Human; settings: Homo sapiens, MDA435; 48 hours exposure, Sulforhodamine B
Experimental: as §1

Sequence of Epithelial Cell Kinase (ECK) (P29317 24-976, species assumed): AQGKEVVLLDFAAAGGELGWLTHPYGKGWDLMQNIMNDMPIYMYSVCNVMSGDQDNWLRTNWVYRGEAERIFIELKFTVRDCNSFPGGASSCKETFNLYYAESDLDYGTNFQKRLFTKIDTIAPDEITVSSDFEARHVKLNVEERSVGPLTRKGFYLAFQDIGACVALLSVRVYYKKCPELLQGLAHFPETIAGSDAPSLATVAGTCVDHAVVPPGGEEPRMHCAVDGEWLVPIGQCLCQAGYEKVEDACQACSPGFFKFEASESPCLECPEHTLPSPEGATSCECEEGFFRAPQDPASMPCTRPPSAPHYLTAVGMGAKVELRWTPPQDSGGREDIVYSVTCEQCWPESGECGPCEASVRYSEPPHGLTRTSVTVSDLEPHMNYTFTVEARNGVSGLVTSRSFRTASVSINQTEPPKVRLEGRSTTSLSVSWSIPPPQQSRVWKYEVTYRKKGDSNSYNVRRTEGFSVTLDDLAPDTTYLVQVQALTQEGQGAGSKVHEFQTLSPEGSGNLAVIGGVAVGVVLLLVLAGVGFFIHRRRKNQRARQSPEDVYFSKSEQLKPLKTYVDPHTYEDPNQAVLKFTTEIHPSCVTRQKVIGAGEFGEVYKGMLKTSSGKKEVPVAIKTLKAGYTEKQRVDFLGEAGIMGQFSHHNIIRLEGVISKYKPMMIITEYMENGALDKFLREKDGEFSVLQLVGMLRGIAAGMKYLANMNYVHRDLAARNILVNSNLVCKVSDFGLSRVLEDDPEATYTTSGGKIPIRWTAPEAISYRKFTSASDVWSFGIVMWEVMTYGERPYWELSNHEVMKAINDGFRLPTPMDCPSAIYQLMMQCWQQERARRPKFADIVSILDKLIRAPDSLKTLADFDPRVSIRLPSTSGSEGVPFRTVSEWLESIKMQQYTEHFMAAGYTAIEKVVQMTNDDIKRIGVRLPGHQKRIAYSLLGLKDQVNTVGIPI
T1 sequence (P00533 669-1210): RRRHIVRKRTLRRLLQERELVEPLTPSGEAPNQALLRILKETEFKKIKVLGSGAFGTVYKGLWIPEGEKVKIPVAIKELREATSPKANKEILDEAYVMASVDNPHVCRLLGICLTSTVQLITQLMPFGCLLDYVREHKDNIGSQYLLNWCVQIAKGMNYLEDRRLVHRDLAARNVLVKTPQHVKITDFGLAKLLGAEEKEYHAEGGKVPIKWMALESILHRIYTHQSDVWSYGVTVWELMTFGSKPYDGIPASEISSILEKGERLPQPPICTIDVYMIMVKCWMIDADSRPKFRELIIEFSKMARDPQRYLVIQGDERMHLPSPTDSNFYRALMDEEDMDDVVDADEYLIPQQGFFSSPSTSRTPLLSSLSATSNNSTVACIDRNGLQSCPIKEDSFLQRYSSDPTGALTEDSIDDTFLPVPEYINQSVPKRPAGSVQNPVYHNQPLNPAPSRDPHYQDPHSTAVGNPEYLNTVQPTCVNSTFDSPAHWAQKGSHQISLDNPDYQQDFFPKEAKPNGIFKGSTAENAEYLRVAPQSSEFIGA

Compound	melting point	also measured
CC#CC(=O)Nc1cnc2ncc(C#N)c(Nc3cccc(Br)c3)c2c1 [Example 24, But-2-ynoic Acid [5-(3-bromo-phenylamino)-6-cyano-[1,8]-naphthyridin-3-yl]-amide]		IC50 [1]: < 0.04 µM
CC#CC(=O)Nc1cnc2ncc(C#N)c(Nc3ccc(F)c(Cl)c3)c2c1 [Example 27, But-2-ynoic acid [5-(3-chloro-4-fluoro-phenylamino)-6-cyano-[1,8]naphthyridin-3-yl]-amide]		IC50 [2]: > 0.1 µM
COc1ccc(CNc2cc3c(Nc4cccc(Br)c4)c(C#N)cnc3cn2)cc1 [Example 58, 4-(3-Bromo-phenylamino)-6-(4-methoxy-benzylamino)-[1,7]naphthyridine-3-carbonitrile]	82 to 86 °C (dec.)	
CC#CC(=O)Nc1cc2c(Nc3cccc(Br)c3)c(C#N)cnc2cn1 [Example 61, But-2-ynoic Acid, [4-(3-bromo-phenylamino)-3-cyano-[1,7]naphthyridin-6-yl]-amide]	255 °C (dec.)	
N#Cc1cnc2cnc(NCCN3CCOCC3)cc2c1Nc1cccc(Br)c1 [Example 63, 4-(3-Bromo-phenylamino)-6-(2-morpholino-4-yl-ethylamino)-[1,7]naphthyridine-3-carbonitrile]	80 to 96 °C (dec.)	
CNc1cc2c(Nc3cccc(Br)c3)c(C#N)cnc2cn1 [Example 64, 4-(3-Bromo-phenylamino)-6-methylamino-[1,7]naphthyridine-3-carbonitrile]	250 °C (dec.)	
N#Cc1cnc2cnc(F)cc2c1Nc1ccc(Oc2ccccc2)cc1 [Example 67, 6-Fluoro-4-(4-phenoxy-phenylamino)-[1,7]naphthyridine-3-carbonitrile]	211 to 213 °C	
N#Cc1cnc2cnc(F)cc2c1Nc1ccc(Cl)cc1Cl [Example 68, 4-(2,4-Dichloro-phenylamino)-6-fluoro-[1,7]naphthyridine-3-carbonitrile]	206 to 208 °C	
N#Cc1cnc2cnc(F)cc2c1Nc1ccc(F)c(Cl)c1 [Example 69, 4-(3-Chloro-4-fluoro-phenylamino)-6-fluoro-[1,7]naphthyridine-3-carbonitrile]	108 to 111 °C	
N#Cc1cnc2cnc(F)cc2c1Oc1ccc(Cl)cc1F [Example 71, 4-(4-Chloro-2-fluoro-phenoxy)-6-fluoro-[1,7]naphthyridine-3-carbonitrile]	186 to 188 °C	
CN(C)CCOc1cc2c(Nc3ccc(Oc4ccccc4)cc3)c(C#N)cnc2cn1 [Example 73, 6-(2-Dimethylamino-ethoxy)4(4-phenoxy-phenylamino)-[1,7]naphthyridine-3-carbonitrile]	159 to 161 °C	
CN(C)CCOc1cc2c(Nc3ccc(F)c(Cl)c3)c(C#N)cnc2cn1 [Example 74, 4-(3-Chloro-4-fluoro-phenylamino)-6-(2-dimethylamino-ethoxy)-[1,7]naphthyridine-3-carbonitrile]	131 to 132 °C	
N#Cc1cnc2cnc(Cl)cc2c1Nc1cccc(Br)c1 [Example 83, 4-(3-Bromo-phenylamino)-6-chloro-[1,7]naphthyridine-3-carbonitrile]	220 to 223 °C	
C[Si](C)(C)C#Cc1cc2c(Nc3cccc(Br)c3)c(C#N)cnc2cn1 [Example 85, 4-(3-Bromo-phenylamino)-6-trimethylsilanylethynyl-[1,7]naphthyridine-3-carbonitrile]	125 °C	IC50 (SW620): 4.72 µg/mL (≈ 11.2 µM); IC50 (A2780DDP): 2.97 µg/mL (≈ 7.05 µM); IC50 (SKBR3): 3.59 µg/mL (≈ 8.52 µM); IC50 (A2780S): 2.34 µg/mL (≈ 5.56 µM); IC50 (A431): 3.06 µg/mL (≈ 7.25 µM); IC50 (MDA435): 4.2 µg/mL (≈ 9.97 µM)

The next lines start with results.

melting point	Compound	also measured
185 to 195 °C	N#Cc1cnc2cnc(F)cc2c1Nc1cccc(Br)c1 [Example 57, 4-(3-Bromo-phenylamino)-6-fluoro-[1,7]naphthyridine-3-carbonitrile]	
185 to 190 °C (dec.)	N#Cc1cnc2cnc(N)cc2c1Nc1cccc(Br)c1 [Example 59, 6-Amino-4-(3-bromo-phenylamino)-[1,7]naphthyridine-3-carbonitrile]	
180 to 185 °C (dec.)	CN(C)CC=CC(=O)Nc1cc2c(Nc3cccc(Br)c3)c(C#N)cnc2cn1 [Example 62, 4-Dimethylamino-but-2-enoic Acid, [4-(3-bromo-phenylamino)-3-cyano-[1,7]naphthyridin-6-yl]-amide]	IC50 (SW620): 0.356 µg/mL (≈ 0.789 µM)
236 to 239 °C (dec.)	Cc1ccc(Nc2c(C#N)cnc3cnc(F)cc23)cc1O [Example 66, 6-Fluoro-4-(3-hydroxy-4-methyl-phenylamino)-[1,7]naphthyridine-3-carbonitrile]	IC50 [1]: > 3.3 µM
150 to 152 °C	CN(C)CCOc1cc2c(Nc3ccc(Cl)cc3F)c(C#N)cnc2cn1 [Example 76, 4-(4-Chloro-2-fluoro-phenylamino)-6-(2-dimethylamino-ethoxy)-[1,7]naphthyridine-3-carbonitrile]	
138 to 139 °C	CN(C)CCOc1cc2c(Nc3cccc(Br)c3)c(C#N)cnc2cn1 [Example 77, 4-(3-Bromo-phenylamino)-6-(2-dimethylamino-ethoxy)-[1,7]naphthyridine-3-carbonitrile]	IC50 [1]: > 2.4 µM
224 °C (dec.)	C#Cc1cc2c(Nc3cccc(Br)c3)c(C#N)cnc2cn1 [Example 86, 4-(3-Bromo-phenylamino)-6-ethynyl-[1,7]naphthyridine-3-carbonitrile]	
